In US20160089346A1, “METHOD OF TREATMENT FOR BODY CONTOURING” (Neothetics, Inc., priority 2014, published 2016):

Assays:
[1] = test system: central abdominal bulging due to excess subcutaneous fat; experiment: Phase 2 RESET trial: abdominal circumference by laser-guided tape measure, and calculated abdominal volume; assay type: in vivo, human; details: 0.4 μg total weekly dose
Procedure: (§1) Methods: A randomized, double-blind, placebo-controlled study was conducted to evaluate the safety and efficacy of a composition comprising the long-acting beta-2 receptor agonist salmeterol xinafoate. This study was reviewed and approved by a central IRB (Chesapeake IRB, Columbia, Md.) and written informed consent was received from all study subjects. The study enrolled 513 adult subjects with central abdominal bulging at 31 investigative sites across the U.S. Subjects were required to be non-obese (BMI<30 kg/m^2), have a focal area of central abdominal bulging due to excess subcutaneous fat (˜400 cm^2 area around the umbilicus), have adequate skin elasticity, have at least a rating of “slight bulge, not flat” on both the 5-point Patient- and Clinician-Global Abdominal Perception Scales (P-GAPS and C-GAPS) at Screening and Day 1, and who were at least slightly dissatisfied with their abdominal bulging in the treatment area. The P-GAPS includes the ratings: flat, almost flat, slight bulge/not flat, […].
(§2) Subjects were randomized to receive 1 of 3 doses of salmeterol xinafoate (0.4, 1.0, or 4.0 μg total weekly dose) or placebo (0.9% Sodium Chloride Injection, USP) once a week for 8 weeks starting on Day 1 after all entry criteria had been satisfied. Randomization was based on a computer-generated, site-based randomization schedule, which was distributed to authorized, unblinded personnel at each site. Twenty, 1 mL weekly subcutaneous (SC) injections administered via a ½ inch 30 gauge needle were spaced 4 cm apart on the anterior abdomen between axial planes at +35 mm and −70 mm, relative to the umbilicus. Consistent injection placement was assured by the weekly application of a water-based temporary tattoo defining the location of the 20 administration injection sites. Efficacy endpoints included a Patient- and Clinician-Global Abdominal Perception Scale, a Patient and Clinician Photonumeric Scale (PPnS and CPnS) and duplicate abdominal circumference measurements (taken at +35 mm, 0 and −70 mm, relative to the umbilicus, using a standardized tape measurement (e.g., laser-guided) procedure).
A specific set of standardized instructions (e.g., patient positioning, posture, breathing, etc.) were followed for the collection of all ratings and measurements. Designated clinical site personnel were trained in person to perform each procedure; some procedures also included a training video. […] Specific to the laser-guided tape measure procedure, the reproducibility of the procedure beyond what is obtained with a standard manual tape measure was enhanced with the water-based tattoo on the anterior abdomen, a self-tensioning tape measure, a tripod-mounted laser level and electronic data capture to ensure the independent recording of circumferential measurements. Both the 5-point patient and clinician verbal scales (P-GAPS and C-GAPS) that assigned scores ranging from flat to big (or pronounced) bulge, as well as the 6-point patient and clinician photonumeric scales (PPnS and CPnS) that are a match-to-sample task in which an abdominal profile are selected from a series of 6 identical torsos with a progressively larger anterior abdominal bulge were specifically developed and validated to assess treatment effects in non-obese subjects with central abdominal bulging. Neither patients nor clinicians had access to the others' scale ratings and neither had access to previous scale scores. Final assessments on all outcome measures were performed 1 week after the last injections (Day 57±2 days).
All efficacy analyses used a repeated measures analysis of covariance (ANCOVA) model to determine differences between each active treatment group and placebo. […]

[2] = test system: non-obese adult subjects with central abdominal bulging; experiment: Phase 2 RESET trial: adverse effects and tolerability; assay type: in vivo, human; details: for Any Adverse Event Definitely or Possibly Related to Study Drug (incidence): 20 SC injections once a week for 8 weeks
Procedure: as §1, §2
Demographics & Safety Results: Subjects enrolled in the study were primarily female (81%; 418/513), white (86%; 440/513), with a mean age of 38 (18−71) years and a mean BMI of 23.4 (18.2−29.9) kg/m^2. […] Ninety-two percent completed the study per protocol; 6 subjects (1%) were lost to follow-up, 4 subjects (<1%) were terminated for protocol violation, 10 subjects (2%) withdrew consent and 21 subjects (4%) withdrew for miscellaneous causes. […] The most frequently reported treatment-emergent adverse effects related to study drug were mild and transient injection site events, including hematoma, erythema, contusion, and pain. The incidence of these adverse effects is reported in Table 1 (a single incidence (<1%) of an adverse event was reported randomly across organ systems and all treatment groups and is not reported in the table). These injection site events occurred with a similar frequency in subjects in the placebo group and in the salmeterol xinafoate groups and were considered to be related to the typical mechanical trauma of an injection procedure rather than the study drug itself.

[3] = test system: central abdominal bulging due to excess subcutaneous fat; experiment: Phase 2 RESET trial: patient and clinician rating scales (P-GAPS, C-GAPS, PPnS, CPnS), composite responders; assay type: in vivo, human; details: 0.4 μg total weekly dose
Procedure: as §1, §2
A specific set of standardized instructions (e.g., patient positioning, posture, breathing, etc.) were followed for the collection of all ratings and measurements. Designated clinical site personnel were trained in person to perform each procedure; some procedures also included a training video. […] Specific to the laser-guided tape measure procedure, the reproducibility of the procedure beyond what is obtained with a standard manual tape measure was enhanced with the water-based tattoo on the anterior abdomen, a self-tensioning tape measure, a tripod-mounted laser level and electronic data capture to ensure the independent recording of circumferential measurements. […]

[4] = compared with albuterol, a short-acting hydrophilic beta-adrenergic agonist; cited from earlier work
[5] = subjects weight neutral or lost weight (≦0 kg)

For `OCc1cc(C(O)CNCCCCCCOCCCCc2ccccc2)ccc1O` (stereo not shown) [salmeterol xinafoate], the “Change in abdominal volume from baseline” value ([1]; Day 57, all subjects, +35 mm to −70 mm relative to the umbilicus, placebo −90 mL, p=0.001) was -192 mL, the “Mean change in abdominal circumference at the umbilicus from baseline” value ([1]; Day 57, all subjects, placebo −0.7 cm, p=0.001) was −1.6 cm and the “Mean reduction in abdominal volume relative to placebo” value ([1]; all subjects) was -102 mL. The “Mean reduction in umbilical circumference relative to placebo” value ([1]; all subjects) was −0.9 cm, the “Mean reduction in abdominal volume from baseline” value [1, 5] was -329 mL and the “Mean reduction in abdominal volume relative to placebo” value [1, 5] was -175 mL. The “Mean reduction in umbilical circumference from baseline” value [1, 5] was −2.7 cm, the “Mean reduction in umbilical circumference relative to placebo” value [1, 5] was −1.6 cm and the “Dose comparison of efficacy across most outcome measures” value ([1]; lowest dose, 0.02 μg/mL) was “the most efficacious”. The “Injection Site Erythema (incidence)” value ([2]; 0.4 μg total weekly dose) was 2%, the “Injection Site Hematoma (incidence)” value ([2]; 0.4 μg total weekly dose) was 5% and the “Injection Site Hemorrhage (incidence)” value ([2]; 0.4 μg total weekly dose) was 0%. For the same molecule, the “Injection Site Pain (incidence)” value ([2]; 0.4 μg total weekly dose) was 3%, the “Any Adverse Event Definitely or Possibly Related to Study Drug (incidence)” value ([2]; 0.4 μg total weekly dose) was 11% and the “Injection Site Erythema (incidence)” value ([2]; 1.0 μg total weekly dose) was 2%. For the same molecule, the “Injection Site Hematoma (incidence)” value ([2]; 1.0 μg total weekly dose) was 6%, the “Injection Site Hemorrhage (incidence)” value ([2]; 1.0 μg total weekly dose) was 0% and the “Injection Site Pain (incidence)” value ([2]; 1.0 μg total weekly dose) was 2%. The “Any Adverse Event Definitely or Possibly Related to Study Drug (incidence)” value ([2]; 1.0 μg total weekly dose) was 12%, the “Injection Site Erythema (incidence)” value ([2]; 4.0 μg total weekly dose) was 0% and the “Injection Site Hematoma (incidence)” value ([2]; 4.0 μg total weekly dose) was 6%. For the same molecule, the “Injection Site Hemorrhage (incidence)” value ([2]; 4.0 μg total weekly dose) was 0%, the “Injection Site Pain (incidence)” value ([2]; 4.0 μg total weekly dose) was 2% and the “Any Adverse Event Definitely or Possibly Related to Study Drug (incidence)” value ([2]; 4.0 μg total weekly dose) was 12%. The Tolerability ([2]; 0.4, 1.0 and 4.0 μg total weekly dose, 20 SC injections into abdominal adipose tissue once a week for 8 weeks) was “well tolerated”, the “Significant adverse events during the study” value ([2]; all dose groups, 8 weeks) was “no significant adverse events” and the “Change from baseline across all rating instruments (P-GAPS, C-GAPS, PPnS, CPnS)” value [3] was “consistent mean reductions from baseline”. For the same molecule, the “Composite responders (2-point improvement on P-GAPS and 2-point improvement on CPnS) compared to placebo” value [3] was “significantly more responders”, the “% composite responders (1-point improvement on P-GAPS and 2-point improvement on CPnS)” value ([3]; all subjects) was 16% and the “% composite responders (1-point improvement on P-GAPS and 2-point improvement on CPnS)” value [3, 5] was 22%.

In the case of `OCc1cc(C(O)CNCCCCCCOCCCCc2ccccc2)ccc1O` (stereo not shown) [salmeterol], the “Lipophilicity relative to albuterol” value [4] is given as “at least 10,000 times”.
